# According to US20230150978A1, “QUINAZOLINONE DERIVATIVES AND USES THEREOF FOR TREATING A CANCER” (ENYO PHARMA, priority 2020, published 2023):
# pEC50: −log10 of the molar value. Where two headings read alike, the source gives them in different places.
# What was measured:
# Calreticulin = Calreticulin release (ER to plasma membrane translocation) screen, Nano-Glo HiBiT extracellular detection; assay type: cell-based; conditions: extracellular luminescence, read-out: CalR EC50
# Procedure: (§1) Construction of pBiT3.1-Calreticulin Plasmid Calreticulin derived from pCMV6-AC plasmid (ref. SC320287, Origene) was amplified by PCR using the following set of primers: Seq ID No 3: forward, 5′-[…]-3′; Seq ID No 4: reverse, 5′-[…]-3′. The PCR fragment was subsequently digested by EcoRI and XhoI (R3101S and R0146S respectively, New England Biolabs) and inserted between the EcoRI and XhoI sites in the plasmid pBiT3.1-C(ref. N237A, Promega). The resulting plasmid (pBiT3.1-Calreticulin) was grown in NEB10-beta competent E. coli (ref. C3019I, New England Biolabs) and purified using the NucleoBond Xtra Midi Kit (ref. 740410, Macherey-Nagel).
# Construction of Calreticulin Reporter Cell Line
# (§2) pBiT3.1-Calreticulin was transfected in MDA-MB-231 cells (ref. ATCC HTB-2) using Lipofectamine 2000 reagent (ref. 11668, Invitrogen). Transfected cells were selected for blasticidin resistance (15 μg/ml, ref. Al 113903 Gibco) in medium containing DMEM 1× (ref. 1995065, Gibco) with 1% penicillin and streptomycin, and 10% fetal bovine serum.
# Screen for Calreticulin-ER to Plasma Membrane Translocating Drugs
# (§3) MDA-MB-231 cells stably expressing Calreticulin-HiBiT (10^4 cells/well) were seeded into white 96-well plates (ref.3917, Corning) and allowed to recover for 24h. […] Mitoxantrone dihydrochloride (ref. M6545, Sigma-Aldrich) was used as a positive control. Extracellular translocation of Calreticulin was measured using the Nano-Glo HiBiT extracellular detection system (ref. N2422, Promega). Nano-Glo HiBiT Extracellular Reagent was prepared in advance, added to the well and incubated 10 min.
# Luminescence of the extracellular Calreticulin-HiBiT was quantified using the Spark 20M spectrofluorimeter (TECAN).
# HMGB1 = HMGB1 release screen, Nano-Glo HiBiT extracellular detection; assay type: cell-based; conditions: extracellular luminescence
# Procedure: Construction of pBiT3.1-HMGB1 Plasmid
# as §1, with “HMGB1” for “Construction of pBiT3.1-Calreticulin Plasmid Calreticulin”, “pCMV6-AC-GFP” for “pCMV6-AC”, “RG205918,” for “SC320287,”, “1:” for “3:”, “2:” for “4:”, “(pBiT3.1-HMGB1)” for “(pBiT3.1-Calreticulin)”
# Construction of HMGB1 Reporter Cell Line
# as §2, with “pBiT3.1-HMGB1” for “pBiT3.1-Calreticulin”
# Screen for HMGB1-Releasing Drugs
# as §3, with “HMGB1-HiBiT” for “Calreticulin-HiBiT”, “HMGB1” for “Calreticulin”, “min. Luminescence of the extracellular HMGB1-HiBiT was quantified using the Spark 20M spectrofluorimeter (TECAN)” for “min.”
# [1] = Homo sapiens, MDA-MB-231, MDA-MB-231 cells stably expressing Calreticulin-HiBiT
# [2] = Homo sapiens, MDA-MB-231, MDA-MB-231 cells stably expressing HMGB1-HiBiT
# [3] = MDA-MB-231 cells stably expressing Calreticulin-HiBiT
# [4] = MDA-MB-231 cells stably expressing HMGB1-HiBiT
Compound,pEC50 (Calreticulin; [1]),pEC50 (HMGB1; [2]),pEC50 (Calreticulin; [3]),pEC50 (HMGB1; [4])
"CC(c1nc2ccc(Cl)cc2c(=O)[nH]1)N1CCc2ccccc21 (centres unmarked) [Ex. #120, 6-chloro-2-(1-indolin-1-ylethyl)-3H-quinazolin-4-one]",5.34,5.10,,
"O=c1[nH]c(CN2Cc3ccccc3C2)nc2ccc(Cl)cc12 [Ex. #50, 6-chloro-2-(isoindolin-2-ylmethyl)-3H-quinazolin-4-one]",5.33,4.94,,
"COc1ccc2nc(CN3CC(CCO)c4ccccc43)[nH]c(=O)c2c1 (centres unmarked) [Ex. #129, 2-[[3-(2-hydroxyethyl)indolin-1-yl]methyl]-6-methoxy-3H-quinazolin-4-one]",4.97,4.88,,
"COc1ccc2nc(CN3CCc4c(F)cccc4C3)[nH]c(=O)c2c1 [Ex. #124, 2-[(5-fluoro-3,4-dihydro-1H-isoquinolin-2-yl)methyl]-6-methoxy-3H-quinazolin-4-one]",5.67,4.87,,
"Cc1ccc2c(c1)CN(Cc1nc3ccc(Cl)cc3c(=O)[nH]1)CC2 [Ex. #60, 6-chloro-2-[(7-methyl-3,4-dihydro-1H-isoquinolin-2-yl)methyl]-3H-quinazolin-4-one]",6.06,5.03,,
"COc1ccc2nc(CN3Cc4ccccc4C(O)C3)[nH]c(=O)c2c1 (centres unmarked) [Ex. #123, 2-[(4-hydroxy-3,4-dihydro-1H-isoquinolin-2-yl)methyl]-6-methoxy-3H-quinazolin-4-one]",5.44,4.88,,
"O=c1[nH]c(CN2CCc3ccccc32)nc2ccc(C(F)(F)F)cc12 [Ex. #85, 2-(indolin-1-ylmethyl)-6-(trifluoromethyl)-3H-quinazolin-4-one]",5.71,5.45,,
"O=c1[nH]c(CN2CCCCc3ccccc32)nc2ccc(Cl)cc12 [Ex. #62, 6-chloro-2-(2,3,4,5-tetrahydro-1-benzazepin-1-ylmethyl)-3H-quinazolin-4-one]",6.02,5.97,,
"O=c1[nH]c(CN2CCCOc3ccccc32)nc2ccc(Cl)cc12 [Ex. #64, 6-chloro-2-(3,4-dihydro-2H-1,5-benzoxazepin-5-ylmethyl)-3H-quinazolin-4-one]",5.61,5.27,,
"Cc1cccc2c1CCCN2Cc1nc2ccc(Cl)cc2c(=O)[nH]1 [Ex. #53, 6-chloro-2-[(5-methyl-3,4-dihydro-2H-quinolin-1-yl)methyl]-3H-quinazolin-4-one]",6.14,5.60,,
"O=c1[nH]c(CN2CCc3ccccc32)nc2ccc(OC(F)(F)F)cc12 [Ex. #82, 2-(indolin-1-ylmethyl)-6-(trifluoromethoxy)-3H-quinazolin-4-one]",5.86,5.93,,
"O=c1[nH]c(CN2CCc3cc(Br)ccc32)nc2ccc(Cl)cc12 [Ex. #48, 2-[(5-bromoindolin-1-yl)methyl]-6-chloro-3H-quinazolin-4-one]",5.22,5.22,,
"CN(C)c1ccc2nc(CN3CC(C)(C)c4ccccc43)[nH]c(=O)c2c1 [Ex. #74, 6-(dimethylamino)-2-[(3,3-dimethylindolin-1-yl)methyl]-3H-quinazolin-4-one]",6.70,6.68,,
"Cc1ccc2c(c1)CCN2Cc1nc2ccc(Cl)cc2c(=O)[nH]1 [Ex. #46, 6-chloro-2-[(5-methylindolin-1-yl)methyl]-3H-quinazolin-4-one]",5.57,5.26,,
"Cc1ccc2c(c1)N(Cc1nc3ccc(Cl)cc3c(=O)[nH]1)CC2 [Ex. #45, 6-chloro-2-[(6-methylindolin-1-yl)methyl]-3H-quinazolin-4-one]",5.92,5.33,,
"COc1ccc2nc(CN3Cc4ccccc4C3)[nH]c(=O)c2c1 [Ex. #10, 2-(isoindolin-2-ylmethyl)-6-methoxy-3H-quinazolin-4-one]",5.35,5.16,,

Compound,pEC50 (Calreticulin; [1]),pEC50 (HMGB1; [2]),pEC50 (Calreticulin; [3]),pEC50 (HMGB1; [4])
"O=c1[nH]c(CN2CCOc3ccccc32)nc2ccc(Cl)cc12 [Ex. #57, 6-chloro-2-(2,3-dihydro-1,4-benzoxazin-4-ylmethyl)-3H-quinazolin-4-one]",4.85,4.92,,
"COC1CCN(c2ccc3nc(CN4CCc5ccccc54)[nH]c(=O)c3c2)CC1 [Ex. #132, 2-(indolin-1-ylmethyl)-6-(4-methoxy-1-piperidyl)-3H-quinazolin-4-one]",4.98,4.84,,
"COc1ccc(OC)c2c1CN(Cc1nc3ccc(Cl)cc3c(=O)[nH]1)CC2O (centres unmarked) [Ex. #61, 6-chloro-2-[(4-hydroxy-5,8-dimethoxy-3,4-dihydro-1H-isoquinolin-2-yl)methyl]-3H-quinazolin-4-one]",6.35,5.41,,
"COc1ccc2nc(CN3CC(C)c4ccccc43)[nH]c(=O)c2c1 (single isomer, unassigned) [Ex. #5, 6-methoxy-2-[(3-methylindolin-1-yl)methyl]-3H-quinazolin-4-one]",,,5.64,5.46
"COc1cc(OC)c2nc(CN3CC(C)(C)c4ccccc43)[nH]c(=O)c2c1 [Ex. #94, 2-[(3,3-dimethylindolin-1-yl)methyl]-6,8-dimethoxy-3H-quinazolin-4-one]",5.51,5.24,,
"CC1CN(Cc2nc3ccc(Cl)cc3c(=O)[nH]2)c2ccccc21 (single isomer, unassigned) [Ex. #38, 6-chloro-2-[(3-methylindolin-1-yl)methyl]-3H-quinazolin-4-one]",,,6.30,6.14
"COc1ccc2nc(CN3CCc4ccccc43)[nH]c(=O)c2c1 [Ex. #1, 2-(indolin-1-ylmethyl)-6-methoxy-3H-quinazolin-4-one]",6.64,5.57,,
"COc1ccc2nc(CN3CC(CCN)c4ccccc43)[nH]c(=O)c2c1 (centres unmarked) [Ex. #131, 2-[1-[(6-methoxy-4-oxo-3H-quinazolin-2-yl)methyl]indolin-3-yl]ethylammonium chloride]",4.92,4.84,,
"O=c1[nH]c(CN2CCc3ccccc32)nc2ccc(N3CCCCC3)cc12 [Ex. #106, 2-(indolin-1-ylmethyl)-6-(1-piperidyl)-3H-quinazolin-4-one]",5.07,4.95,,
"CC1Cc2ccccc2N1Cc1nc2ccc(Cl)cc2c(=O)[nH]1 (centres unmarked) [Ex. #41, 6-chloro-2-[(2-methylindolin-1-yl)methyl]-3H-quinazolin-4-one]",5.10,5.02,,
"COc1ccc2nc(CN3CC(C)(C)c4ccccc43)[nH]c(=O)c2c1 [Ex. #2, 2-[(3,3-dimethylindolin-1-yl)methyl]-6-methoxy-3H-quinazolin-4-one]",6.40,6.22,,
"COc1cc2c(=O)[nH]c(CN3CCc4ccccc43)nc2cc1F [Ex. #76, 7-fluoro-2-(indolin-1-ylmethyl)-6-methoxy-3H-quinazolin-4-one]",6.53,6.23,,
"O=c1[nH]c(CN2CC3(CCCC3)c3ccccc32)nc2ccc(Cl)cc12 [Ex. #42, 6-chloro-2-(spiro[cyclopentane-1,3′-indoline]-1′-ylmethyl)-3H-quinazolin-4-one]",5.75,5.45,,
"O=c1[nH]c(CN2CCc3ccccc32)nc2cc(Cl)ccc12 [Ex. #89, 7-chloro-2-(indolin-1-ylmethyl)-3H-quinazolin-4-one]",5.08,5.20,,
"O=c1[nH]c(CN2CCc3ccccc32)nc2cc(C(F)(F)F)ccc12 [Ex. #91, 2-(indolin-1-ylmethyl)-7-(trifluoromethyl)-3H-quinazolin-4-one]",5.09,5.00,,
